Measurements as given in ChEMBL document CHEMBL1152371, “Effect of varying chain length between P(1) and P(1') position of tripeptidomimics on activity of angiotensin-converting enzyme inhibitors” (Bioorg Med Chem Lett, 2009).

Target: T1, Angiotensin-converting enzyme (Oryctolagus cuniculus) (UniProt P12822)
T1 sequence (whole entry): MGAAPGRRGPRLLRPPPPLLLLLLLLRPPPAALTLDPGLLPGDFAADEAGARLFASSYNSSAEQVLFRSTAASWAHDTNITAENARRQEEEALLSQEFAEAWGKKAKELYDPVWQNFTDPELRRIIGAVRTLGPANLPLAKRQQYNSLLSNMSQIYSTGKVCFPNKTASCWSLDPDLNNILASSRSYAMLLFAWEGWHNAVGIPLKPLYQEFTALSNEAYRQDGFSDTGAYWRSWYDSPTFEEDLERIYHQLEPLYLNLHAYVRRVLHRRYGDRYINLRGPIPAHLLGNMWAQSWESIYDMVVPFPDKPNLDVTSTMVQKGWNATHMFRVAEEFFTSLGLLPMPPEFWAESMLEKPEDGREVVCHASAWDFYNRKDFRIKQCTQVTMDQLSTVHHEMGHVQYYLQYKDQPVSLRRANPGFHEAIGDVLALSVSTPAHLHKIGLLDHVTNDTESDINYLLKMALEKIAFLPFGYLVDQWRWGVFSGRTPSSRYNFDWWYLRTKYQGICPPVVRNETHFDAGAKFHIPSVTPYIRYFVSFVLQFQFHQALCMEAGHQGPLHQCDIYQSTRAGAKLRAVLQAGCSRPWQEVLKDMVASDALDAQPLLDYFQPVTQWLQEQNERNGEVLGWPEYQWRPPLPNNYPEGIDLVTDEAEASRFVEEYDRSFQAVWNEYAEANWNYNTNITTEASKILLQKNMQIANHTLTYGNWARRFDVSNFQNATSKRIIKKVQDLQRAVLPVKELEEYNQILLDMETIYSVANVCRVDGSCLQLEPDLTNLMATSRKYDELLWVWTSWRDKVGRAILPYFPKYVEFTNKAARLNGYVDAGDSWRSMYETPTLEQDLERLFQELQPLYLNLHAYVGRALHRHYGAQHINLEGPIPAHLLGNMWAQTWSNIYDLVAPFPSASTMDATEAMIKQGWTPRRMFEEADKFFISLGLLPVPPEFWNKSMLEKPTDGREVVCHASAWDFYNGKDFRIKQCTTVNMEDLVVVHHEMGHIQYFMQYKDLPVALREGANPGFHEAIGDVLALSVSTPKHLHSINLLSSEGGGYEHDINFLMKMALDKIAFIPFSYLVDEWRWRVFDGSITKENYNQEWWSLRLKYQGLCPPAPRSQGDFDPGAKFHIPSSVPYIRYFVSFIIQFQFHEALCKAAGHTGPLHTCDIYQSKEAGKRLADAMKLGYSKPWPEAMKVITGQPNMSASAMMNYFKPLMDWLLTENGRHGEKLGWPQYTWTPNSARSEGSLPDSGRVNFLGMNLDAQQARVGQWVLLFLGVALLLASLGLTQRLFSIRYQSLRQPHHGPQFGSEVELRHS
Experiment: Inhibition of rabbit lung ACE activity relative to control
Design: concentration or dose not given beside the values
Details: concentration not given here

Row | Structure (SMILES) | inhibition [%]
1 | NCCC[C@H](NC(=O)CCCc1ccsc1)C(=O)N1CCC[C@H]1C(=O)O | 37.2
2 | NCCC[C@H](NC(=O)CCc1ccsc1)C(=O)N1CCC[C@H]1C(=O)O | 72.7
3 | NCCC[C@H](NC(=O)c1ccsc1)C(=O)N1CCC[C@H]1C(=O)O | 23.7
4 | NCCC[C@H](NC(=O)Cc1ccsc1)C(=O)N1CCC[C@H]1C(=O)O | 35.6

The remaining lines, values ahead:

Row | inhibition [%] | Structure (SMILES)
5 | 59.7 | NCCC[C@H](NC(=O)CCc1c[nH]c2ccccc12)C(=O)N1CCC[C@H]1C(=O)O
6 | 27.7 | NCCC[C@H](NC(=O)c1c[nH]c2ccccc12)C(=O)N1CCC[C@H]1C(=O)O
7 | 38.5 | NCCC[C@H](NC(=O)Cc1c[nH]c2ccccc12)C(=O)N1CCC[C@H]1C(=O)O
8 | 33.8 | NCCC[C@H](NC(=O)CCCc1c[nH]c2ccccc12)C(=O)N1CCC[C@H]1C(=O)O
